{"source": "PubChem BioAssay AID504628", "about": "(Vanderbilt High Throughput Screening Facility, 2011)", "molecular_target": "Voltage-dependent T-type calcium channel subunit alpha-1H (Homo sapiens) (UniProt O95180)", "sequence (O95180 whole entry, looked up)": "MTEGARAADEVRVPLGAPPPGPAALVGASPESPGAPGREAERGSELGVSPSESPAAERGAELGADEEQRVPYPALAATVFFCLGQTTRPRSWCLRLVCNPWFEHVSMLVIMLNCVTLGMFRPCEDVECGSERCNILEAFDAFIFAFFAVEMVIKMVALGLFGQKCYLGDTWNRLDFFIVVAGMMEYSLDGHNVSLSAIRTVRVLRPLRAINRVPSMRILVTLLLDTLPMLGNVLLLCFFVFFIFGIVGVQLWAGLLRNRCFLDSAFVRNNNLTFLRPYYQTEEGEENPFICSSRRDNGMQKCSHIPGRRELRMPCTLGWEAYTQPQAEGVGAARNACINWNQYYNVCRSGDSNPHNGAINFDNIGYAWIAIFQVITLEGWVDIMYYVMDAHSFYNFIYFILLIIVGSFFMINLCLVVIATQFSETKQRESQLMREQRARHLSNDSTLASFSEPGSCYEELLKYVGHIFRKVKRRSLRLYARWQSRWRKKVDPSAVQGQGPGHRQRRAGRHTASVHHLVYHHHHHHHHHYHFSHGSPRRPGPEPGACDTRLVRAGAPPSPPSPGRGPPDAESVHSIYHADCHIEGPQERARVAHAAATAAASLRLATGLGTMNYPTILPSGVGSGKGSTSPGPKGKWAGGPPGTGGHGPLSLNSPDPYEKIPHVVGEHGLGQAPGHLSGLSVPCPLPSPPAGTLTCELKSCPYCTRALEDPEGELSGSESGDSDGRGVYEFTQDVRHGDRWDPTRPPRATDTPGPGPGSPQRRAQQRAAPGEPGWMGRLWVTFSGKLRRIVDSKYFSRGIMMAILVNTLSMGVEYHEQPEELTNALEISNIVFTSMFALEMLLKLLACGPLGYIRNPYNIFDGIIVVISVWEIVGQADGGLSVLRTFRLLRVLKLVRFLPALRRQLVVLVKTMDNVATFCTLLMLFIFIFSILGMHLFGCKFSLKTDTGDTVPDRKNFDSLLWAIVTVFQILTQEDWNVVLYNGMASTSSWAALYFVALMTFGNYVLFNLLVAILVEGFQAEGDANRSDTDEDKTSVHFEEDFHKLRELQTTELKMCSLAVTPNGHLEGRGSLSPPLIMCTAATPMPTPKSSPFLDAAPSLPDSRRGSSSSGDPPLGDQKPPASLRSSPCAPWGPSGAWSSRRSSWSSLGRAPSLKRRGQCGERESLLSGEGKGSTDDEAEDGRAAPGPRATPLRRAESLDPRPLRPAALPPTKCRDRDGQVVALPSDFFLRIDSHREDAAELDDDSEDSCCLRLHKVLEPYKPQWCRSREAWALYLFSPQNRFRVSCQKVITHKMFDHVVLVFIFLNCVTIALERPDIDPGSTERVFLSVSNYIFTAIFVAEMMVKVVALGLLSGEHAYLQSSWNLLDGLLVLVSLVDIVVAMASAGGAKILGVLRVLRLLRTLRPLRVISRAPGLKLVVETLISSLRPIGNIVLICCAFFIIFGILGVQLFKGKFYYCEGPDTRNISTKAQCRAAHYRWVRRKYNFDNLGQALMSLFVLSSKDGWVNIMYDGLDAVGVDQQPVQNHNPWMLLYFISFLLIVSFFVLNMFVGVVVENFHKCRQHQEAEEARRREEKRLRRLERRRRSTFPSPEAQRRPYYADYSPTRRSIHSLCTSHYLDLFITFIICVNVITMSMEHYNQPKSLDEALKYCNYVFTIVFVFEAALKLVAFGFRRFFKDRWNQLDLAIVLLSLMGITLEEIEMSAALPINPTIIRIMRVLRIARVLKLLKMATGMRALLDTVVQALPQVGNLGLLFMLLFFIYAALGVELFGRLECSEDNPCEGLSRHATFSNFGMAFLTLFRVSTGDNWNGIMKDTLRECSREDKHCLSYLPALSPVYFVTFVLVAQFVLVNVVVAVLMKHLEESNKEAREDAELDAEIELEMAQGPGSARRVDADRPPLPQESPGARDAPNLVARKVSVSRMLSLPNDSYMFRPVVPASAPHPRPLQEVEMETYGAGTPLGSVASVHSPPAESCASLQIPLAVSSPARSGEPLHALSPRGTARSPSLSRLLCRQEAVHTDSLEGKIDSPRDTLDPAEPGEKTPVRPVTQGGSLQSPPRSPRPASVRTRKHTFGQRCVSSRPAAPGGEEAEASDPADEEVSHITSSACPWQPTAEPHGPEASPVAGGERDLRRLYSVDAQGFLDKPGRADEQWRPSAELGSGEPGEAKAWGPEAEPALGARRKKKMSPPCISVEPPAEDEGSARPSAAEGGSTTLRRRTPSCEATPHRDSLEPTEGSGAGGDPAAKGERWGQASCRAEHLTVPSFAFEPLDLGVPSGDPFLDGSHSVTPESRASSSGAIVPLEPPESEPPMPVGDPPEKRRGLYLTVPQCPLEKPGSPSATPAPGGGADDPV", "experiment": "electrophysiology of T-type channel inhibitors – HEK293 cells, whole-cell recording, orthogonal assay for T-type calcium channel inhibitor project, late-stage follow-up (AID 504628)", "conditions": "HEK293-Cav3.2 whole-cell patch clamp, Ba2+ current; at 1 µM"}
{"smiles": "CC(C)(C)CCN1C[C@@H]2C(CNC(=O)c3cc(Cl)cc(Cl)c3)[C@@H]2C1", "note": "(stereo partly specified)", "values": [{"measurement": "current", "result": -1010, "unit": "pA"}]}
